From patent publication US5866377A, “Aminooligosaccharide derivative and process for preparing the same” (Chong Kun Dang Corporation, priority 1994, dated 1999)

How the values were obtained:
Solubility = type: physicochemical
From the text: soluble in water and ethanol insoluble in benzene and normal hexane

amylase = test: Inhibition of amylase activity; type: biochemical; conditions: 0.25M phosphate buffer pH 7.0, starch substrate, 37° C., absorbance at 660 nm; 30 min; read-out: half(50%) inhibition ratio for amylase activity(IC50)
Experimental: An enzyme solution(hereinafter referred to as `solution A`) containing amylase dissolved in 0.25M phosphate buffer(pH 7.0), 0.25M phosphate buffer solution(pH 7.0)(hereinafter referred to as `solution B`) and 0.04 (w/v) % starch solution (hereinafter referred to as `solution C`) were prepared, respectively. Then, 0.05 ml of solution B containing CK-4416 dissolved in solution B, 0.1 ml of solution B and 0.05 ml of solution B were combined to incubate at 37° C. for 5 min, and further incubated for 30 min after the addition of 0.5 ml of solution C. After […], absorbance at 660 nm was deter-mined for CK-4416 sample(T) and control(C) which is free of sample.
Inhibition ratio=(C-T)/C×100

[1] = test system: Comamonas terrigena(ATCG 8461); test: Antibacterial activity, paper disc method, Gram-negative strain; type: cell-based; conditions: 1 mg/ml sample, read-out: inhibitory zone
Experimental: To four of 500 ml Erlenmeyer flasks was addled 100 ml of a medium for seed culture(pH 6.5) containing glucose 1 (w/v) %, dextrin 1 (w/v) %, NZ-amine(type A) 0.5 (w/v) %, yeast extract 0.5 (w/v) % and calcium carbonate 0.1 (w/v) %, and sterilized at 120° C. for 15 min. 1 platinum loop of slant culture of Streptomyces sp. CK-4416 which was obtained from a subculture, was inoculated to each of four flasks and incubated under shaking at 27° C. for 3 days. Then, 100 ml of culture media(pH 6.5) containing soluble starch 3 (w/v) %, soybean powder 1.5 (w/v) %, corn steep liquor 1.5 (w/v) %, polypeptone 0.2 (w/v) %, Na2 S2 O3 0.1 (w/v) %, calcium carbonate 0.5 (w/v) %, cobalt chloride 0.0001 (w/v) % was added to 200 of 500 ml Erlenmeyer flasks and sterilized at 120° C. for 30 min. 2 (v/v) % of seed culture was inoculated to the media and incubated at 27° C. for 3 days under shaking at 240 rpm. CK-4416 was quantitatively assayed by the determination of antimicrobial activity employing a test organism Comamonas terrigena(ATCC 8461) in accordance with conventional paper disc method. After 3 days culture, pH and yield were determined as 7.2 and 0.06 mg/ml, respectively.
(§1) Antibacterial activities for Gram-positive and negative bacterial strains were determined with 1 mg/ml of CK-4416 sample, by employing paper disc method.

[2] = Acidic, neutral or basic properties; type: physicochemical
From the text: 13. Acidic, neutral or basic properties:

[3] = test system: Gram-positive bacterial strains; test: Antibacterial activity, paper disc method, Gram-positive strains; type: cell-based; conditions: 1 mg/ml sample
Experimental: as §1

blood glucose level = test: Lowering of sugar level in blood after oral starch load; type: in vivo; conditions: male SD rats fasted 12 hrs, 1 hr after administration, glucose oxidase method
Experimental: To two groups of 5 male SD rats fasted for 12 hrs, 1.5 g/kg of starch was orally administered, concurrently with 40 mg/kg and 80 mg/kg of samples. Then, blood was taken from the rats after 1 hr from administration, and glucose level in blood was determined by glucose oxidase method and compared with control group which has not taken the CK-4416 sample.

With `OCC1OC(OC2C(CO)OC(OC3C(CO)OC(OC4C(CO)OC(OC5C(CO)OC(O)C(O)C5O)C(O)C4O)C(O)C3O)C(O)C2O)C(O)C(O)C1NC1C(O)C(O)C(O)C2(CO)OC12` (single isomer, unassigned) [CK-4416] as the compound, how does the Solubility (Solubility; in benzene and normal hexane) read?
The Solubility was “insoluble”.

What about the Solubility (Solubility; in water and ethanol) of the same compound?
Its Solubility is “soluble”.

What about the IC50 (amylase) of the same compound?
The IC50 was 1600 nM.

And the zone of inhibition at 1000 µg/mL [1]?
Its zone of inhibition at 1000 µg/mL is 24.8 mm.

And the “Acidic, neutral or basic properties” value [2]?
The value was “weakly basic”.

What about the Antibacterial activity [3] of the same compound?
The Antibacterial activity was “no activity”.

And the Blood glucose level (blood glucose level; 40 mg/kg oral with 1.5 g/kg starch)?
Its Blood glucose level is 97.5 ± 14.3.

And the Blood glucose level (blood glucose level; 80 mg/kg oral with 1.5 g/kg starch)?
Its Blood glucose level is 87.5 ± 11.3.
